According to patent US9314029B2, “Control and repellency of mosquitoes” (BEDOUKIAN RESEARCH, INC., priority 2012, dated 2016):

Experiments:
Assay type in all cases: in vivo
[1] = system: Aedes aegypti; assay: Human forearm-in-cage test, time to first confirmed bite; conditions: max 8 hours
Procedure: (§1) In addition, human testing was performed to determine the efficacy of compounds from structure (I). Mosquito species used are described in the tables below. Each test subject was exposed to 2 products each test day. The application rate was between 0.65 ml and 1 ml/250 cm^2 for all repellents. The actual amount of repellent used was based upon the amount that provides thorough coverage of the 250 cm^2 treatment area. A repellent was applied using either a micropipette or a syringe minus the needle. The repellents were then evenly spread on the treatment area with a gloved finger. Each test subject's forearms were allowed to air dry for approximately 30 minutes prior to the first exposure. The study coordinator or technician assisted the test subjects in inserting their arms into the test cages containing 200 mosquitoes, taking care not to rub them on the cloth sleeve, to confirm that the insects were biting. If fewer than 10 mosquitoes land on the untreated arm in 60 seconds (all would normally bite), fresh mosquitoes will be added. Typically, the ten (10) landings took place within 10-30 seconds. Both treated arms were inserted into a cage; there were two subjects (4 arms) per cage. The test subjects exposed their treated forearms to the mosquitoes in the test cages for 5 minutes. The subjects then remove their arms from the cages with assistance from the study coordinator or a technician. Exposures of each arm were repeated every 30 minutes until the repellent on that arm was determined to be no longer effective (‘breakdown’) or until 8 hours have elapsed, whichever occurred first. Breakdown occurs when the first confirmed bite is noted. A confirmed bite occurs when a bite is followed by a second bite in the same exposure period or in the next succeeding exposure period. The second bite becomes the confirming bite and the breakdown time is taken as the time of the first bite. The average of two repetitions is given.

[2] = system: Aedes aegypti; assay: Repellency on treated membrane-covered blood-filled wells; conditions: 20 min; for Avg % Repellency: relative to control
Procedure: (§2) The invention is illustrated by, but not limited to, the following examples. • Five replicates of 250 adult female mosquitoes each were placed in clear plastic cages with access to five warmed, blood-filled, membrane-covered wells. The mosquitoes were Aedes aegypti unless otherwise noted. Membranes were treated with repellent. Five replicates were tested. Each replicate used a fresh batch of mosquitoes, blood and treated membranes. The number of mosquitoes probing each well was recorded at two minute intervals for 20 minutes. The total numbers of probes on each well were tallied at the end of the observation period and the average percentage repellency relative to the control was calculated for each formulation.

[3] = system: Culex quinquefasciatus; assay: Human forearm-in-cage test, time to first confirmed bite; conditions: 10%, max 8 hours
Procedure: as §1

[4] = system: Anopheles quadrimaculatus; assay: as above; conditions: 10%, max 8 hours
Procedure: as §1

[5] = system: Culex quinquefasciatus; assay: Repellency on treated membrane-covered blood-filled wells; conditions: 7% in isopropanol, 20 min; for Avg % Repellency: relative to control
Procedure: as §2

[6] = system: Aedes aegypti; assay: Human forearm-in-cage test, time to first confirmed bite; conditions: without the use of polymers or other inert ingredients; species not stated
[7] = system: Aedes aegypti; assay: Toxicity to mosquitoes of treated surface (aluminum foil), 5 min exposure; conditions: 2.5% in ethanol, dried on foil
Procedure: A test was designed to determine if two test samples at 2 concentrations applied to a surface are toxic to mosquitoes. Aluminum foil squares, […] were treated with one of the test samples and after drying were placed on top of large Petri dishes, 6″ in diameter. Inverted polystyrene cups, 3.5″ in diameter and 3″ high, each with a circular hole drilled through the bottom, and the sides and top painted with Fluon, were used as the treatment containers. They were placed on top of the Petri dishes and secured with rubber bands. Mosquitoes were aspirated and gently blown through the drilled hole into the arena. A plastic disc was then placed over the hole. Five replicates of ten female Aedes aegypti were used for the test sample treatment and an additional 5 replicates of 10 mosquitoes were used for solvent control. Mosquitoes were constantly exposed to the dried test material for 5 minutes, after which time they were transferred into clean containers, where they were provided a sucrose solution for nourishment. The formal observations for knockdown were made at 1 and 4 hours. At 24 hours the numbers of live, moribund and dead mosquitoes were counted.

Compound: CCCCCCCCCC1CCC(=O)O1 (stereo not shown) [gamma-tridecalactone]
- 100% bite protection time ([1]; 30% in isopropanol): 1 h
- Avg # Probes ([2]; 5% in isopropanol): 3.1
- Avg % Repellency ([2]; 5% in isopropanol): 94.4%
- Avg # Probes ([2]; 7% in isopropanol): 1.8
- Avg % Repellency ([2]; 7% in isopropanol): 97.5%

Compound: CCCCCC1CCC(=O)O1 (stereo not shown) [gamma-nonalactone]
- Avg # Probes ([2]; 7% in isopropanol): 20.4
- Avg % Repellency ([2]; 7% in isopropanol): 77.1%

Compound: CCCCCCCCCCC1CCC(=O)O1 (stereo not shown) [gamma-tetradecalactone]
- 100% bite protection time ([1]; 15% in isopropanol): 0.5 hr^
- Avg # Probes ([2]; 7% in isopropanol): 0.8
- Avg % Repellency ([2]; 7% in isopropanol): 98.9%

Compound: CCC(C)CCCC(C)CCC1CCCC1=O (stereo not shown) [tetrahydromethyl apritone]
- Avg # Probes ([2]; 7% in isopropanol): 11
- Avg % Repellency ([2]; 7% in isopropanol): 74.9%

Compound: dihydrojasmolactone
- Avg # Probes ([2]; 7% in isopropanol): 0
- Avg % Repellency ([2]; 7% in isopropanol): 100%

Compound: CCCCCC1C(=O)CCC1CC(=O)OCCC (stereo not drawn) [Propyl Dihydrojasmonate - low epi, Propyl Dihydrojasmonate]
- Avg # Probes ([2]; 2.5% in isopropanol): 6
- Avg % Repellency ([2]; 2.5% in isopropanol): 85%

Compound: CCCCCC1C(O)CCC1CCO (stereo not shown) [dihydrojasmindiol]
- Avg # Probes ([2]; 7% in isopropanol): 7.2
- Avg % Repellency ([2]; 7% in isopropanol): 84.3%

Compound: CC(C)CCCC(C)CCC1CCCC1=O (stereo not shown) [tetrahydroapritone]
- Avg # Probes ([2]; 7% in isopropanol): 3.8
- Avg % Repellency ([2]; 7% in isopropanol): 93.7%

Compound: CC1CCC(C(C)(C)O)C(O)C1 (stereo not shown) [PMD, p-Menthane-3,8-diol, reference compound]
- 100% bite protection time ([1]; 5% in isopropanol): 2.75 h
- 100% bite protection time ([1]; 10% in isopropanol): 6.25 h
- 100% bite protection time [3]: 4.25 h
- 100% bite protection time [4]: 6.75 h
- Avg # Probes ([2]; 7% in isopropanol): 9
- Avg % Repellency ([2]; 7% in isopropanol): 79.2%

Compound: CCCCCC1C(O)CCC1CC(=O)OCC (stereo not shown) [Ethyl Dihydrojasmolate]
- Avg # Probes ([2]; 7% in isopropanol): 0
- Avg % Repellency ([2]; 7% in isopropanol): 100%

Compound: CCCCCCCCC1(C)CCC(=O)O1 (stereo not shown) [gamma Methyl Dodecalactone]
- Avg # Probes ([2]; 5% in isopropanol): 1
- Avg % Repellency ([2]; 5% in isopropanol): 98%

Compound: CCC(C)=CCCC(C)=CCC1CCCC1O (stereo not shown) [methyl apritol]
- Avg # Probes ([2]; 7% in isopropanol): 6.6
- Avg % Repellency ([2]; 7% in isopropanol): 91.9%
- Avg # Probes ([2]; 10% in isopropanol): 6.8
- Avg % Repellency ([2]; 10% in isopropanol): 89.2%

Compound: CCCCCCCCC1CCC(=O)O1 (stereo not shown) [gamma-dodecalactone]
- 100% bite protection time ([1]; 10% in isopropanol): 1.25 h
- Avg # Probes ([2]; 7% in isopropanol): 0
- Avg % Repellency ([2]; 7% in isopropanol): 100%
- Avg # Probes [5]: 0
- Avg % Repellency [5]: 100%

Compound: CCCCCC1C(=O)CCC1CC(=O)OCCC (stereo not shown) [Propyl Dihydrojasmonate]
- 100% bite protection time ([1]; 15% in isopropanol): <0.5 hr ^
- 100% bite protection time ([1]; 30% in isopropanol): 1 h
- 100% bite protection time ([1]; 30% in squalane): 2.75 h
- Avg # Probes ([2]; 5% in isopropanol): 4
- Avg % Repellency ([2]; 5% in isopropanol): 97%
- Avg # Probes ([2]; 5% in squalane): 0
- Avg % Repellency ([2]; 5% in squalane): 99%
- Avg # Probes ([2]; 7% in isopropanol): 2.6
- Avg % Repellency ([2]; 7% in isopropanol): 95.6%
- prolonged repellency [6]: ≥ 8 h

Compound: CCCCCC1C(=O)CCC1CC(=O)OCC=C(C)C (stereo not shown) [Prenyl Dihydrojasmonate]
- Avg # Probes ([2]; 7% in isopropanol): 2.8
- Avg % Repellency ([2]; 7% in isopropanol): 92.6%

Compound: CCCCCCC1CC(=O)C=C(C)C1 (stereo not shown) [3-methyl-5-hexyl-2-cyclohexenone]
- Avg # Probes ([2]; 5% in isopropanol): 0
- Avg % Repellency ([2]; 5% in isopropanol): 100%

Compound: CCCCCC1C(=O)CCC1CC(=O)OCCC (stereo not drawn) [Propyl Dihydrojasmonate - high epi, Propyl Dihydrojasmonate]
- Avg # Probes ([2]; 2.5% in isopropanol): 2
- Avg % Repellency ([2]; 2.5% in isopropanol): 95%

Compound: CCN(CC)C(=O)c1cccc(C)c1 [DEET ®, N,N-Diethyl-m-toluamide, reference compound]
- Avg # Probes ([2]; 4% in isopropanol): 8.4
- Avg % Repellency ([2]; 4% in isopropanol): 90.8%
- Avg # Probes ([2]; 10% in isopropanol): 0.8
- Avg % Repellency ([2]; 10% in isopropanol): 98%

Compound: CCCCCC1C(=O)CCC1CC(=O)N(CC)CC (stereo not shown) [methyl dihydrojasmonate amide]
- Avg # Probes ([2]; 2.5% in isopropanol): 18.6
- Avg % Repellency ([2]; 2.5% in isopropanol): 55%
- Avg # Probes ([2]; 5% in isopropanol): 6.8
- Avg % Repellency ([2]; 5% in isopropanol): 90.1%

Compound: CCCCC1CC(=O)C=C(C)C1 (stereo not shown) [3-methyl-5-butyl-2-cyclohexenone]
- Avg # Probes ([2]; 5% in isopropanol): 1
- Avg % Repellency ([2]; 5% in isopropanol): 97%
- 1 hr knockdown [7]: 100%
- 4 hr knockdown [7]: 100%
- 24 hr mortality [7]: 88%

Compound: CCCCCCOC(=O)CC1CCC(=O)C1CCCCC (stereo not shown) [Hexyl Dihydrojamonate]
- Avg # Probes ([2]; 7% in isopropanol): 30.4
- Avg % Repellency ([2]; 7% in isopropanol): 66.1%

Compound: farnesyl cyclopentanol
- Avg # Probes ([2]; 7% in isopropanol): 16.2
- Avg % Repellency ([2]; 7% in isopropanol): 67.8%

Compound: CCCCCC1C(O)CCC1CC(=O)OCC=C(C)C (stereo not shown) [Prenyl Dihydrojasmolate]
- Avg # Probes ([2]; 7% in isopropanol): 3.2
- Avg % Repellency ([2]; 7% in isopropanol): 92.2%

Compound: CC/C(C)=C/CC/C(C)=C/CC1CCCC1=O (stereo not shown) [methyl apritone]
- 100% bite protection time ([1]; 10% in isopropanol): <0.5 hr ^
- Avg # Probes ([2]; 7% in isopropanol): 7.6
- Avg % Repellency ([2]; 7% in isopropanol): 90.4%
- Avg # Probes ([2]; 10% in isopropanol): 3.6
- Avg % Repellency ([2]; 10% in isopropanol): 93.9%
- Avg # Probes [5]: 0
- Avg % Repellency [5]: 100%

Compound: CCCCCCCC1CC(=O)C=C(C)C1 (stereo not shown) [3-methyl-5-heptyl-2-cyclohexenone]
- Avg # Probes ([2]; 5% in isopropanol): 0
- Avg % Repellency ([2]; 5% in isopropanol): 99%
- 1 hr knockdown [7]: 100%
- 4 hr knockdown [7]: 100%
- 24 hr mortality [7]: 98%

Compound: CCCCCCC1CC(C)=CC(O)C1 (stereo not shown) [3-methyl-5-hexyl-2-cyclohexenol]
- Avg # Probes ([2]; 5% in isopropanol): 1
- Avg % Repellency ([2]; 5% in isopropanol): 91%

Compound: CCCCCCCC1CCCC(=O)O1 (stereo not shown) [delta-dodecalactone]
- Avg # Probes ([2]; 7% in isopropanol): 0
- Avg % Repellency ([2]; 7% in isopropanol): 100%

Compound: CCCCCCCCCC1(C)CCC(=O)O1 (stereo not shown) [gamma Methyl Tridecalactone]
- Avg # Probes ([2]; 5% in isopropanol): 4
- Avg % Repellency ([2]; 5% in isopropanol): 96%

Compound: CCCCCCCCCC1CCCC(=O)O1 (stereo not shown) [delta-tetradecalactone]
- Avg # Probes ([2]; 7% in isopropanol): 1.6
- Avg % Repellency ([2]; 7% in isopropanol): 97.3%

Compound: CCCCCC1C(O)CCC1CC(=O)OC (stereo not shown) [Methyl Dihydrojasmolate]
- Avg # Probes ([2]; 4% in isopropanol): 0.6
- Avg % Repellency ([2]; 4% in isopropanol): 98.8%
- Avg # Probes ([2]; 7% in isopropanol): 0
- Avg % Repellency ([2]; 7% in isopropanol): 100%

Compound: CCCCCC1C(=O)CCC1CC(C)=O (stereo not shown) [amyl cyclopentanone propanone]
- Avg # Probes ([2]; 7% in isopropanol): 0
- Avg % Repellency ([2]; 7% in isopropanol): 100%
